This note sets out measurements from publication PMC12195967, “Cobalt(II) Complexes of 4′–Nitro–Fenamic Acid: Characterization and Biological Evaluation” (Molecules, 2025).

Where two headings read alike, the source gives them in different places.

Common to all, as to assay: Antibacterial activity, MIC
Holding throughout (format): cell-based

Experiment [1] relates to Staphylococcus aureus ATCC 29213. To be noted: 24 h incubation, 37°C; for MIC: read-out: MIC, S. aureus. The text has this:
(§1) In order to evaluate the antimicrobial activity of the synthesized 4′–NO2–fenH and its Co(II) complexes 1–4, two Gram-positive (B. subtilis and S. aureus) and two Gram-negative (X. campestris and E. coli) strains were used. In general, the increased antimicrobial activity of the complexes is attributed to five main factors: (i) the chelation effect of the ligands, (ii) the chemical nature of the ligands, (iii) the nature and the nuclearity of the metal center, (iv) the total charge of the complex and (v) the presence and nature of counter ions. […]
(§2) S2 Antibacterial Activity studies
(§3) The antibacterial activity of the compounds was evaluated by determining their respective MIC values towards two Gram–(–) (Escherichia coli XL1 (E. coli) and Xanthomonas campestris ATCC 1395 (X. campestris)) and two Gram–(+) (Staphylococcus aureus ATCC 29213 (S. aureus) and Bacillus subtilis ATCC 6633 (B. subtilis)) bacterial species. Cultures of these microbial strains were grown on a rich selective agar medium and stored at 4°C. The selective media used were Nutrient Agar or Broth for B. subtilis and S. aureus, Yeast Mold Agar or Broth for X. campestris and Luria Agar or Broth for E. coli. Cells picked from the surface of the stored cultures were used to initiate liquid pre–cultures of the same selective medium at an initial turbidity of roughly 1 McFarland unit.
(§4) Pre–cultures were incubated for 24 h in a rotary shaking incubator and subsequently they were used to inoculate the test cultures used for the determination of MIC at an initial turbidity of 0.5 McFarland units. The test cultures consisted of Mueller–Hinton broth (Deben Diagnostics Ltd) containing different concentrations of the compounds. Different concentrations were achieved as follows: the compounds were freshly dissolved in DMSO to a concentration of 1 mg/mL, and they were diluted with DMSO, using the method of progressive double dilution. Therefore, working solutions with decreasing concentrations of the compounds under investigation were achieved.
(§5) The working solutions were subsequently diluted to the final desired concentration by addition to the growth medium at a proportion of 2:98. MIC values were determined as the lowest concentrations of the tested compounds that inhibited visible growth of each respective organism after a 24 h incubation. Bacterial growth was determined by measuring the turbidity of appropriately diluted cultures at 600 nm with reference to equally diluted sterile growth medium and the inhibition achieved was calculated by comparing the turbidity of each culture to the average of the turbidity of three non–inhibited cultures. All test cultures were grown in triplicates and for the determination of MIC, growth had to be inhibited in at least two cultures of the triplicate. The incubation temperature at all stages was 37°C except for X. campestris that was cultivated at 28°C [4].

The test system of experiment [2] is Xanthomonas campestris ATCC 33013. The note with it: for MIC: read-out: MIC, X. campestris.
From the text: as §1, §2, §3, §4, §5

Experiment [3] relates to Bacillus subtilis ATCC 6633. The note with it: 24 h incubation, 37°C; for MIC: read-out: MIC, B. subtilis.
From the text: as §1, §2, §3, §4, §5

The test system of the next experiment is Escherichia coli XL1. To be noted: 24 h incubation, 37°C.
From the text: as §1, §2, §3, §4, §5

Where [4] appears, read: value in parentheses, 24 h incubation, 28°C.

Regarding `O=C(O)c1ccccc1Nc1ccc([N+](=O)[O-])cc1` [4′–NO2–fenH, 4′–nitrofenamic acid], the minimum inhibitory concentration (MIC) was found to be 25 µg/mL in experiment [1] (Staphylococcus aureus, ATCC29213); 97 µM in experiment [1] (Staphylococcus aureus, ATCC29213, value in parentheses); 25 µg/mL in experiment [2] (Xanthomonas campestris, ATCC33013, 24 h); 97 µM in experiment [2] (Xanthomonas campestris, ATCC33013, value in parentheses, 24 h incubation, 28°C); 12.5 µg/mL in experiment [3] (Bacillus subtilis, ATCC6633); 48 µM in experiment [3] (Bacillus subtilis, ATCC6633, value in parentheses). The minimum inhibitory concentration (MIC) was 25 µg/mL against Escherichia coli XL1 (Escherichia coli, XL1) and 97 µM in the experiment with Escherichia coli XL1 (Escherichia coli, XL1, value in parentheses).
`CO.CO.CO.CO.O=C([O-])c1ccccc1Nc1ccc([N+](=O)[O-])cc1.O=C([O-])c1ccccc1Nc1ccc([N+](=O)[O-])cc1.[Co+2]` [Complex 1, [Co(4′–NO2–fen)2(MeOH)4]]: in experiment [1], the “MIC, S. aureus” value stood at 12.5 µg/mL. The MIC in experiment [1] (value in parentheses) was 18 µM; in experiment [2] (setting [4]) it was over 71 µM; in experiment [3] (value in parentheses), 18 µM; in the experiment on Escherichia coli XL1 (value in parentheses), over 71 µM. Also, in experiment [2] (24 h incubation, 28°C), the “MIC, X. campestris” value is over 50 µg/mL. Besides, in experiment [3], the “MIC, B. subtilis” value came out at 12.5 µg/mL. The “MIC, E. coli” value with Escherichia coli XL1 was over 50 µg/mL.
For the compound `O=C([O-])c1ccccc1Nc1ccc([N+](=O)[O-])cc1.O=C([O-])c1ccccc1Nc1ccc([N+](=O)[O-])cc1.[Co+2].c1ccc(Nc2ccccn2)nc1` [Complex 2, [Co(4′–NO2–fen)2(bipyam)]], the “MIC, S. aureus” value in experiment [1] is over 50 µg/mL. The results for the minimum inhibitory concentration (MIC) (in experiment [1] (value in parentheses); in experiment [3] (value in parentheses); in the experiment with Escherichia coli XL1 (value in parentheses)) were over 67 µM, 34 µM and over 67 µM, respectively. Further, the “MIC, X. campestris” value in experiment [2] (24 h incubation, 28°C) turned out to be 25 µg/mL. Further, in experiment [3], the “MIC, B. subtilis” value was 25 µg/mL. In addition, in the experiment on Escherichia coli XL1, the “MIC, E. coli” value is over 50 µg/mL.
In the case of `O=C([O-])c1ccccc1Nc1ccc([N+](=O)[O-])cc1.O=C([O-])c1ccccc1Nc1ccc([N+](=O)[O-])cc1.[Co+2].c1cnc2c(c1)ccc1cccnc12` [Complex 3, [Co(4′–NO2–fen)2(phen)]], the “MIC, S. aureus” value in experiment [1] turned out to be 25 µg/mL. Moreover, the MIC (in experiment [1] (value in parentheses); in experiment [2] (setting [4]); in experiment [3] (value in parentheses); in the experiment on Escherichia coli XL1 (value in parentheses)) was 33 µM throughout. Besides, the “MIC, X. campestris” value in experiment [2] (24 h incubation, 28°C) is 25 µg/mL. The “MIC, B. subtilis” value in experiment [3] was 25 µg/mL. The “MIC, E. coli” value against Escherichia coli XL1 turned out to be 25 µg/mL.
As for `C[O-].C[O-].Cc1ccc2ccc3ccc(C)nc3c2n1.Cc1ccc2ccc3ccc(C)nc3c2n1.O=C([O-])c1ccccc1Nc1ccc([N+](=O)[O-])cc1.O=C([O-])c1ccccc1Nc1ccc([N+](=O)[O-])cc1.[Co+2].[Co+2]` [Complex 4, [Co2(4′–NO2–fen)2(μ–CH3O)2(neoc)2]], the “MIC, S. aureus” value in experiment [1] was found to be 12.5 µg/mL. The MIC in experiment [1] (value in parentheses) was 11 µM; in experiment [2] (setting [4]), 11 µM; in experiment [3] (value in parentheses), 11 µM; in the experiment on Escherichia coli XL1 (value in parentheses), over 45 µM. For the same compound, the “MIC, X. campestris” value in experiment [2] (24 h incubation, 28°C) amounted to 12.5 µg/mL. In experiment [3], the “MIC, B. subtilis” value is 12.5 µg/mL. The “MIC, E. coli” value with Escherichia coli XL1 was over 50 µg/mL.

As a reminder, the MIC is the lowest concentration that inhibits growth of the organism.
